Experimental data as given in patent US7838020B2, “Cosmetic or dermatological composition comprising an association between a compound of the N-acylaminoamide family and at least one matrix metalloproteinase inhibitor” (L'Oreal, priority 2001, dated 2010).

Tests used:
[1] = target: T1, human leukocyte elastase (ELH) (Homo sapiens, UniProt P08246); experiment: ex vivo activity on fresh human skin cuts treated with ELH for 2 hours (Example 4); assay type: cell-based; conditions: 20° C.
T1 sequence (P08246 30-267): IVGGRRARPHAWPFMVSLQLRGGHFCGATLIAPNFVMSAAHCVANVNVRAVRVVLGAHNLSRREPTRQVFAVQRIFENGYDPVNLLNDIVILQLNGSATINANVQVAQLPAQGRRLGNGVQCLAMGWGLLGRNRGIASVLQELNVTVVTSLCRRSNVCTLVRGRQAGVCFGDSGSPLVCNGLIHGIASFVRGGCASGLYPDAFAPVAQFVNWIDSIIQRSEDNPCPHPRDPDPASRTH
Description: (§1) The ex vivo activity of example 2 compound has been evaluated on surviving human skins treated by a human leukocyte elastase (ELH).
The test is performed the following way.
Fresh human skin cuts from two different donors are treated for 2 hours, at 20° C., by 20 μl of a buffer solution (pH 7.4) optionally comprising 10 μg/ml ELH and optionally 0.1% of the compound to be tested, optionally previously put in solution in ethanol.
(§2) The elastic fibres are coloured in blue using catechin (+) and quantified morphometrically using a computer assisted image analysis. The average derma surface percentage occupied by elastic fibres is evaluated this way.

[2] = target: T1, human leukocyte elastase (ELH); experiment: ex vivo activity on surviving human skin fragments treated with ELH, 10 days culture (Example 5); assay type: cell-based; conditions: 0.5 μg ELH per ml; 5 μl of 0.2% compound in ethanol every two days; 10 days at 37° C.; control 7.4%, ELH alone 5.1%
Description: as §1
The test is performed the following way:
Fragments of normal human skin from three different donors are deposited in inserts positioned in culture wells. Culture medium added with antibiotics is added in the bottom of the wells. A pass is performed through slow diffusion between the two compartments via a porous membrane (pore size: 12 μm).
The culture medium is renewed every three days.
On the skin fragments, optionally 0.5 μg ELH per ml culture medium are added.
5 μl of the compound to be tested are also added every two days, previously put in solution at 0.2% by weight in ethanol.
The skins are kept surviving for 10 days at 37° C.
as §2

[3] = target: T1, human leukocyte elastase (ELH); experiment: in vitro anti-elastasic activity, Me-OSAAPV-p-NA substrate, spectrophotometry; assay type: biochemical; conditions: even in a small amount (0.01% to 0.2%)
Description: The anti-elastasic activity of compounds according to the invention is determined in vitro compared to the human leukocyte elastase (ELH).
The test is performed in the following way:
A Me-OSAAPV-p-NA (méthyl-O-succinate alanine alanine proline valine-p-nitroaniline) substrate, onto which ELH (40 milli-units per ml) and 0.1% of the compound to be tested are applied, is left for incubating at 37° C. for 60 minutes.
Thereafter, the % inhibition of the control elastase activity is determined by spectrophotometry.

% Surface occupied by elastic fibres ([1]; Skin 1, 10 μg/ml ELH + 0.1% compound, control 12.7%, ELH alone 4.85%): 13.95% | % Surface occupied by elastic fibres ([1]; Skin 2, 10 μg/ml ELH + 0.1% compound, control 15.25%, ELH alone 6.85%): 11.85% | inhibition of the elastase activity (in words) [3]: strong inhibition
Compound: CC(=O)N(c1cccc(C(F)(F)F)c1)C(C(=O)NCC(=O)O)C(C)C (stereo not shown) [Compound A, {2-[acetyl-(3-trifluoromethyl-phenyl)-amino]-3-méthyl-butyryl-amino}acetic acid]
% Surface occupied by elastic fibres [2]: 7.1%
